The record followed here is patent US7388017B2, “Inhibitors of serine proteases, particularly hepatitis C virus NS3 protease” (Vertex Pharmaceuticals Incorporated, priority 1996, dated 2008).

Starred links: 1 amine or outer side, 2 acyl side, 3 side chain; linkers in the order of their positions; H or OH if unused. Non-standard residues stand in square brackets, D forms with d. Residues, ends and D or L forms follow the SMILES beside them. Groups on a side chain read outwards from the residue. *: point of attachment. CH2(1-naphthyl) = c1ccc2c(C*)cccc2c1; Benzyl(3,4-Cl2) = Clc1ccc(C*)cc1Cl; Pyrazinecarbonyl = O=C(c1cnccn1)*; NH(3-Cl-phenyl) = Clc1cccc(N*)c1; X26 = Clc1ccc(-c2ncc(C*)s2)cc1; X35 = Cc1noc(C)c1-c1nc(C*)no1; X36 = c1ccc(-c2ccc(C*)cc2)cc1; Hyp = O=C(O)[CH]1C[CH](O)CN1; X25 = c1ccc(-c2nc(C*)no2)cc1; X5 = c1ccc(Oc2cccc(C*)c2)cc1; X11 = c1ccc(-c2ccccc2C*)cc1; X2 = COc1ccccc1-c1nc(C*)no1; X21 = FC(F)(F)Oc1cccc(C*)c1; X27 = Fc1cc2c(c(C*)c1)OCOC2; X7 = O=C(c1ccc(Cl)c(Cl)c1)*; X20 = FC(F)(F)c1cccc(C*)c1; X24 = FC(F)(F)c1ccc(C*)cc1; X4 = FC(F)(F)Oc1ccc(C*)cc1; Isovaleryl = CC(C)CC(=O)*; X15 = Clc1cc2c(cc1C*)OCO2; X31 = Clc1ccc2scc(C*)c2c1; X40 = CC(C)(C)c1nc(C*)no1; X10 = c1ccc2cc(C*)ccc2c1; X32 = Clc1ccc(N*)c(Cl)c1; X42 = Clc1cccc(N*)c1Cl; Abu = CC[CH](N)C(=O)O; X22 = N#Cc1cccc(C*)c1; X33 = N#Cc1ccc(C*)cc1; CO = O=C([*:1])[*:2]; X29 = Fc1ccc(C*)cc1F; Bz = O=C(c1ccccc1)*; X1 = Cc1noc(C)c1C*

T1 sequence (P27958 1027-1208): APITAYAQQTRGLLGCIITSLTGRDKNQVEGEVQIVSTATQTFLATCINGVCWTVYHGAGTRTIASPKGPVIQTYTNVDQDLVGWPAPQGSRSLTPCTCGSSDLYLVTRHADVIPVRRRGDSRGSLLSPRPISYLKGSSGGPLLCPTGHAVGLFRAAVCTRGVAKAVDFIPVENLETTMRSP

This assay has as its target T1, HCV NS3 protease (Hepatitis C virus genotype 1a, UniProt P27958).
T1 construct: more particularly HCV NS3 proteases
Briefly: Enzyme inhibition of HCV NS3 serine protease (cleavage of peptide substrate / EDVV AbuC-p-nitroanilide, with or without NS4A). To be noted: Enzyme inhibition data; Ki from rate vs [inhibitor] plots, Morrison tight binding competitive inhibition fit; 30 C, pH 7.8; read-out: Ki. The format is biochemical. The method, then:
Cleavage reactions were quenched by the addition of an equal volume of a mixture of 10% TFA:acetonitrile (1:1) and activity was assessed on a reversed phase HPLC column (Rainin C18 Microsorb-MV, […], 4.6×250 mm; 0-50% acetonitrile, 0.1% TFA@ 3.33% min) using a Hewlett Packard 1050 instrument with auto-injection and diode array detection at 210 nm and 280 nm (where appropriate). Peptide elution fragments were collected and identified by mass spectrometry and N-terminal sequence analysis. Fragment identity and concentration was further verified by authentic, synthesized products. Initial rates of cleavage were determined at <20% substrate conversion and catalytic parameters were determined assuming Michaelis-Menten kinetics using the MultiFit program (Day Computing, Cambridge, Mass.).
Spectrophotometric assays were run in a 96-well microtiter plate at 30 C, using a SpectraMax 250 reader (Molecular Devices, Sunnyvale, Calif.) with kinetic capability. Cleavage of EDVV AbuC-p-nitroanilide (5A-pNA) substrate was performed with or without […] in the same buffer used for HPLC assays at 30 C, and pNA release was monitored at 405 nm. The extinction-coefficient of p-nitroaniline is independent of pH at values of 5.5. and above [Tuppy, H., et al., Hoppe-Seyler's Z. Physiol. Chem., 329, pp. 278-288 (1962)]; Raybuck and Luong, unpublished observations).
Kinetic constants for the rapid equilibrium ordered bisubstrate reaction were determined from rate vs [4A], [EDVV AbuC-pNA] data by non-linear least squares fitting to equation 1 [Morrison, J. F. Biochim. Biophys. Acta, 185, pp. 269-286 (1969)] as described in the text. Kii and Kis values for peptidyl inhibitors were determined from rate vs [inhibitor], [substrate] data and fitting to the equation for mixed inhibition: rate=Vmax[S]/{Km(1+[I]/Kis)+[S](1+[I]/Kii)} The commercial program KinetAsyst (StateCollege, Pa.) was used for both procedures. Ki values were calculated from rate vs [inhibitor] plots by a nonlinear least squares fit of the data to the equation of Morrison for tight binding competitive inhibition [Morrison, J. F. Biochim. Biophys. Acta, 185, pp. 269-286 (1969)]. The KineTic program (BioKin Ltd) was used for this procedure.
Ki values are expressed in μM. Category “A” indicates <1 μM inhibition; category “B” indicates 1-100 μM inhibition; category “C” indicates >100 μM.
With `CCC(C=O)NC(=O)C1CC(OCc2cccc(Oc3ccccc3)c2)CN1C(=O)C(NC(=O)C(NC(=O)c1cnccn1)C(C)C)C(C)C` (stereo not shown) [Compound 1] (Pyrazinecarbonyl-VV[Hyp](X5)[Abu]-aldehyde; configuration not given here), the Ki was 1 to 100 µM.

In the case of `CCC(C=O)NC(=O)C1CC(OCc2ccc(-c3ccccc3)cc2)CN1C(=O)C(NC(=O)C(NC(=O)c1cnccn1)C(C)C)C(C)C` (stereo not shown) [Compound 2] (Pyrazinecarbonyl-VV[Hyp](X36)[Abu]-aldehyde; configuration not given here), the Ki lay within 1 to 100 µM.

For the compound `CCC(C=O)NC(=O)C1CC(OCc2noc(-c3ccccc3)n2)CN1C(=O)C(NC(=O)C(NC(=O)c1cnccn1)C(C)C)C(C)C` (stereo not shown) [Compound 3] (Pyrazinecarbonyl-VV[Hyp](X25)[Abu]-aldehyde; configuration not given here), the Ki is 1 to 100 µM.

In the case of `CCC(C=O)NC(=O)C1CC(OCc2noc(-c3c(C)noc3C)n2)CN1C(=O)C(NC(=O)C(NC(=O)c1cnccn1)C(C)C)C(C)C` (stereo not shown) [Compound 5] (Pyrazinecarbonyl-VV[Hyp](X35)[Abu]-aldehyde; configuration not given here), the Ki lay in the range of 1 to 100 µM.

Take `CCC(C=O)NC(=O)C1CC(OCc2noc(C(C)(C)C)n2)CN1C(=O)C(NC(=O)C(NC(=O)c1cnccn1)C(C)C)C(C)C` (stereo not shown) [Compound 6] (Pyrazinecarbonyl-VV[Hyp](X40)[Abu]-aldehyde; configuration not given here): the Ki was in the range of 1 to 100 µM.

Take `CCC(C=O)NC(=O)C1CC(OCc2cc(F)cc3c2OCOC3)CN1C(=O)C(NC(=O)C(NC(=O)c1cnccn1)C(C)C)C(C)C` (stereo not shown) [Compound 8] (Pyrazinecarbonyl-VV[Hyp](X27)[Abu]-aldehyde; configuration not given here): the Ki fell in the range of 1 to 100 µM.

For `CCC(C=O)NC(=O)C1CC(OCc2cccc(OC(F)(F)F)c2)CN1C(=O)C(NC(=O)C(NC(=O)c1cnccn1)C(C)C)C(C)C` (stereo not shown) [Compound 9] (Pyrazinecarbonyl-VV[Hyp](X21)[Abu]-aldehyde; configuration not given here), the Ki is 1 to 100 µM.

Regarding `CCC(C=O)NC(=O)C1CC(OCc2ccc(Cl)c(Cl)c2)CN1C(=O)C(NC(=O)C(NC(=O)c1cnccn1)C(C)C)C(C)C` (stereo not shown) [Compound 10] (Pyrazinecarbonyl-VV[Hyp](Benzyl(3,4-Cl2))[Abu]-aldehyde; configuration not given here), the Ki was 1 to 100 µM.

As for `CCC(C=O)NC(=O)C1CC(OCc2ccccc2-c2ccccc2)CN1C(=O)C(NC(=O)C(NC(=O)c1cnccn1)C(C)C)C(C)C` (stereo not shown) [Compound 11] (Pyrazinecarbonyl-VV[Hyp](X11)[Abu]-aldehyde; configuration not given here), the Ki fell in the range of 1 to 100 µM.

Turning to `CCC(C=O)NC(=O)C1CC(OCc2c(C)noc2C)CN1C(=O)C(NC(=O)C(NC(=O)c1cnccn1)C(C)C)C(C)C` (stereo not shown) [Compound 12] (Pyrazinecarbonyl-VV[Hyp](X1)[Abu]-aldehyde; configuration not given here), the Ki lay within 1 to 100 µM.

For the compound `CCC(C=O)NC(=O)C1CC(OCc2cc3c(cc2Cl)OCO3)CN1C(=O)C(NC(=O)C(NC(=O)c1cnccn1)C(C)C)C(C)C` (stereo not shown) [Compound 13] (Pyrazinecarbonyl-VV[Hyp](X15)[Abu]-aldehyde; configuration not given here), the Ki is 1 to 100 µM.

For `CCC(C=O)NC(=O)C1CC(OCc2noc(-c3ccccc3OC)n2)CN1C(=O)C(NC(=O)C(NC(=O)c1cnccn1)C(C)C)C(C)C` (stereo not shown) [Compound 14] (Pyrazinecarbonyl-VV[Hyp](X2)[Abu]-aldehyde; configuration not given here), the Ki lay within 1 to 100 µM.

In the case of `CCC(C=O)NC(=O)C1CC(OCc2ccc(C#N)cc2)CN1C(=O)C(NC(=O)C(NC(=O)c1cnccn1)C(C)C)C(C)C` (stereo not shown) [Compound 15] (Pyrazinecarbonyl-VV[Hyp](X33)[Abu]-aldehyde; configuration not given here), the Ki lay in the range of 1 to 100 µM.

Consider `CCC(C=O)NC(=O)C1CC(OCc2cccc(C(F)(F)F)c2)CN1C(=O)C(NC(=O)C(NC(=O)c1cnccn1)C(C)C)C(C)C` (stereo not shown) [Compound 16] (Pyrazinecarbonyl-VV[Hyp](X20)[Abu]-aldehyde; configuration not given here), for which the Ki fell in the range of 1 to 100 µM.

On to `CCC(C=O)NC(=O)C1CC(OCc2ccc(C(F)(F)F)cc2)CN1C(=O)C(NC(=O)C(NC(=O)c1cnccn1)C(C)C)C(C)C` (stereo not shown) [Compound 17] (Pyrazinecarbonyl-VV[Hyp](X24)[Abu]-aldehyde; configuration not given here), for which the Ki fell in the range of 1 to 100 µM.

With `CCC(C=O)NC(=O)C1CC(OCc2ccc(OC(F)(F)F)cc2)CN1C(=O)C(NC(=O)C(NC(=O)c1cnccn1)C(C)C)C(C)C` (stereo not shown) [Compound 18] (Pyrazinecarbonyl-VV[Hyp](X4)[Abu]-aldehyde; configuration not given here), the Ki is 1 to 100 µM.

`CCC(C=O)NC(=O)C1CC(OCc2ccc3ccccc3c2)CN1C(=O)C(NC(=O)C(NC(=O)c1cnccn1)C(C)C)C(C)C` (stereo not shown) [Compound 20] (Pyrazinecarbonyl-VV[Hyp](X10)[Abu]-aldehyde; configuration not given here): the Ki was in the range of 1 to 100 µM.

For the compound `CCC(C=O)NC(=O)C1CC(OCc2cccc(C#N)c2)CN1C(=O)C(NC(=O)C(NC(=O)c1cnccn1)C(C)C)C(C)C` (stereo not shown) [Compound 21] (Pyrazinecarbonyl-VV[Hyp](X22)[Abu]-aldehyde; configuration not given here), the Ki lay in the range of 1 to 100 µM.

On to `CCC(C=O)NC(=O)C1CC(OCc2ccc(F)c(F)c2)CN1C(=O)C(NC(=O)C(NC(=O)c1cnccn1)C(C)C)C(C)C` (stereo not shown) [Compound 22] (Pyrazinecarbonyl-VV[Hyp](X29)[Abu]-aldehyde; configuration not given here), for which the Ki is 1 to 100 µM.

As for `CCC(C=O)NC(=O)C1CC(OCc2csc3ccc(Cl)cc23)CN1C(=O)C(NC(=O)C(NC(=O)c1cnccn1)C(C)C)C(C)C` (stereo not shown) [Compound 23] (Pyrazinecarbonyl-VV[Hyp](X31)[Abu]-aldehyde; configuration not given here), the Ki was in the range of 1 to 100 µM.

`CCC(C=O)NC(=O)C1CC(OCc2cnc(-c3ccc(Cl)cc3)s2)CN1C(=O)C(NC(=O)C(NC(=O)c1cnccn1)C(C)C)C(C)C` (stereo not shown) [Compound 24] (Pyrazinecarbonyl-VV[Hyp](X26)[Abu]-aldehyde; configuration not given here): the Ki was in the range of 1 to 100 µM.

For `CCC(C=O)NC(=O)C1CC(OCc2cccc3ccccc23)CN1C(=O)C(NC(=O)C(NC(=O)c1cnccn1)C(C)C)C(C)C` (stereo not shown) [Compound 26] (Pyrazinecarbonyl-VV[Hyp](CH2(1-naphthyl))[Abu]-aldehyde; configuration not given here), the Ki was 1 to 100 µM.

With `CCC(C=O)NC(=O)C1CC(OC(=O)c2ccc(Cl)c(Cl)c2)CN1C(=O)C(NC(=O)C(NC(=O)c1cnccn1)C(C)C)C(C)C` (stereo not shown) [Compound 27] (Pyrazinecarbonyl-VV[Hyp](X7)[Abu]-aldehyde; configuration not given here), the Ki was 1 to 100 µM.

For the compound `CCC(C=O)NC(=O)C1CC(OC(=O)c2ccccc2)CN1C(=O)C(NC(=O)C(NC(=O)c1cnccn1)C(C)C)C(C)C` (stereo not shown) [Compound 28] (Pyrazinecarbonyl-VV[Hyp](Bz)[Abu]-aldehyde; configuration not given here), the Ki is 1 to 100 µM.

As to `CCC(C=O)NC(=O)C1CC(OC(=O)CC(C)C)CN1C(=O)C(NC(=O)C(NC(=O)c1cnccn1)C(C)C)C(C)C` (stereo not shown) [Compound 29] (Pyrazinecarbonyl-VV[Hyp](Isovaleryl)[Abu]-aldehyde; configuration not given here), the Ki was in the range of 1 to 100 µM.

In the case of `CCC(C=O)NC(=O)C1CC(OC(=O)Nc2ccc(Cl)cc2Cl)CN1C(=O)C(NC(=O)C(NC(=O)c1cnccn1)C(C)C)C(C)C` (stereo not shown) [Compound 30] (Pyrazinecarbonyl-VV[Hyp]([CO-X32])[Abu]-aldehyde; configuration not given here), the Ki is 1 to 100 µM.

For `CCC(C=O)NC(=O)C1CC(OC(=O)Nc2cccc(Cl)c2Cl)CN1C(=O)C(NC(=O)C(NC(=O)c1cnccn1)C(C)C)C(C)C` (stereo not shown) [Compound 31] (Pyrazinecarbonyl-VV[Hyp]([CO-X42])[Abu]-aldehyde; configuration not given here), the Ki was in the range of 1 to 100 µM.

For `CCC(C=O)NC(=O)C1CC(OC(=O)Nc2cccc(Cl)c2)CN1C(=O)C(NC(=O)C(NC(=O)c1cnccn1)C(C)C)C(C)C` (stereo not shown) [Compound 32] (Pyrazinecarbonyl-VV[Hyp]([CO-NH(3-Cl-phenyl)])[Abu]-aldehyde; configuration not given here), the Ki was in the range of 1 to 100 µM.
